{
  "source": "paper PMC8286817",
  "about": "“Identifying SARS-CoV-2 antiviral compounds by screening for small molecule inhibitors of Nsp14 RNA cap methyltransferase” (Biochemical Journal, 2021)",
  "key": {"[1]": {"target": "nsp10–16 fusion 2′-O-methyltransferase (Severe acute respiratory syndrome coronavirus 2, UniProt P0DTD1)", "format": "biochemical, SARS-CoV-2"}, "SARS-CoV-2 [2]": {"system": "SARS-CoV-2", "test": "microbe, parasite or virus in culture", "format": "cell-based"}, "Vero E6 cells": {"system": "Vero E6 cells", "test": "Cell viability by DNA staining (DRAQ7) in the viral infection assay", "format": "cell-based", "details": "22 h post infection", "procedure": "We assayed expression of the viral N protein as a surrogate for viral replication by infecting cells with a constant amount of SARS-CoV-2 in the presence of inhibitor. We then quantified viral replicative capacity in fixed cells 22 h post-infection using a fluorescent anti-nucleoprotein antibody.\n1.5 × 10^3 Vero E6 cells (NIBC, U.K.) resuspended in DMEM containing 10% FBS were seeded into each well of 96-well imaging plates (Greiner 655090) and cultured overnight at 37°C and 5% CO2. The next day, a 5× solution of compounds were generated by dispensing 10 mM stocks of compounds into a v-bottom 96-well plate (Thermo 249946) and back filling with DMSO to equalise the DMSO concentration in all wells using an Echo 550 (Labcyte) before resuspending in DMEM containing 10% FBS. […] Finally, the cells were infected by adding 20 µl of SARS-CoV2 with a final MOI of 0.5 PFU/cell. 22 h post infection, cells were fixed, permeabilised, and stained for SARS-CoV2 N protein using Alexa488-labelled-CR3009 antibody produced custom (see section for Recombinant mAb production) and cellular DNA using DRAQ7 (ABCAM). Whole-well imaging at 5× was carried out using an Opera Phenix (PerkinElmer) and fluorescent areas and intensity calculated using the Phenix-associated software Harmony (PerkinElmer)."}, "SIRT1": {"system": "SIRT1", "design": "method as in PMID 22331558", "details": "read-out: IC50 against SIRT1; cited from earlier work"}, "[3]": {"target": "O-6′-methylguanine-DNA methyltransferase, MGMT", "design": "method as in PMID 16533784", "details": "read-out: IC50 against MGMT; cited from earlier work"}, "SARS-CoV-2 [4]": {"system": "SARS-CoV-2", "details": "remdesivir at 1 µM and below; cited from earlier work"}, "[5]": {"details": "Vero E6 cells, 0.5 µM remdesivir versus compound alone"}, "[6]": {"details": "Severe acute respiratory syndrome coronavirus 2, Vero C1008, Vero E6 cells, MOI 0.5 PFU/cell, 22 h, in additional presence of 0.5 µM remdesivir, read-out: EC50 + Rem. of viral replication (viral nucleoprotein area)"}},
  "note": "Read-outs that look alike come from different tables or passages of the source.",
  "data": [
    {"compound": "Nc1ncnc2c1ncn2[C@@H]1O[C@H](C[C@@H](N)CC[C@H](N)C(=O)O)[C@@H](O)[C@H]1O", "note": "[sinefungin]", "values": [
      {"measurement": "Inhibition of nsp10–16 methyltransferase (normalised HTRF)", "setting": "[1]", "result": "able to inhibit methyltransfer by nsp10–16"}
    ]},
    {"compound": "Inauhzin", "values": [
      {"measurement": "EC50 reduction when combined with remdesivir", "setting": "SARS-CoV-2 [2]; [5]", "result": "no increased inhibitory capacity"},
      {"measurement": "EC50", "setting": "SARS-CoV-2 [2]; Vero E6 cells, MOI 0.5 PFU/cell, 22 h, in additional presence of 0.5 µM remdesivir, read-out: EC50 + Rem. of viral replication (viral nucleoprotein area)", "result": 11.2, "unit": "µM"},
      {"measurement": "EC50", "setting": "SARS-CoV-2 [2]; Vero E6 cells, MOI 0.5 PFU/cell, 22 h post infection, read-out: EC50 of viral replication (viral nucleoprotein area)", "result": 13, "unit": "µM"},
      {"measurement": "Cytotoxicity at effective / EC50 concentrations (DNA staining)", "setting": "Vero E6 cells", "result": "little to no cytotoxicity"},
      {"measurement": "IC50", "setting": "SIRT1", "result": "~1", "unit": "µM"}
    ]},
    {"compound": "Nc1nc(OCc2cc(Br)cs2)c2[nH]cnc2n1", "note": "[Lomeguatrib]", "values": [
      {"measurement": "EC50", "setting": "SARS-CoV-2 [2]; Severe acute respiratory syndrome coronavirus 2, Vero C1008, 22 h, read-out: EC50 of viral replication (viral nucleoprotein area)", "result": 59.8, "unit": "µM"},
      {"measurement": "EC50", "setting": "SARS-CoV-2 [2]; [6]", "result": 44.1, "unit": "µM"},
      {"measurement": "EC50 reduction when combined with remdesivir", "setting": "SARS-CoV-2 [2]; [5]", "result": "~27", "unit": "%"},
      {"measurement": "Cytotoxicity at effective / EC50 concentrations (DNA staining)", "setting": "Vero E6 cells", "result": "slight cytotoxicity"},
      {"measurement": "IC50", "setting": "[3]", "result": "~0.005", "unit": "µM"}
    ]},
    {"compound": "N#Cc1ccc(N2N=C3c4ccc(C(=O)O)cc4CC[C@@H]3[C@@H]2C2CCCC2)cc1Cl", "note": "[PF-03882845]", "values": [
      {"measurement": "EC50 reduction when combined with remdesivir", "setting": "SARS-CoV-2 [2]", "result": "~56", "unit": "%"},
      {"measurement": "EC50", "setting": "SARS-CoV-2 [2]; read-out: EC50 + Rem. of viral replication (viral nucleoprotein area)", "result": 4.79, "unit": "µM"},
      {"measurement": "EC50", "setting": "SARS-CoV-2 [2]; read-out: EC50 of viral replication (viral nucleoprotein area)", "result": 11, "unit": "µM"}
    ]},
    {"compound": "O=C(CCCN1CCC(O)(c2cccc(C(F)(F)F)c2)CC1)c1ccc(F)cc1", "note": "[Trifluperidol]", "values": [
      {"measurement": "EC50", "setting": "SARS-CoV-2 [2]; [6]", "result": 5.05, "unit": "µM"},
      {"measurement": "EC50", "setting": "SARS-CoV-2 [2]; Severe acute respiratory syndrome coronavirus 2, Vero C1008, Vero E6 cells, MOI 0.5 PFU/cell, 22 h post infection, read-out: EC50 of viral replication (viral nucleoprotein area)", "result": 14.9, "unit": "µM"},
      {"measurement": "EC50 reduction when combined with remdesivir", "setting": "SARS-CoV-2 [2]; [5]", "result": "~66", "unit": "%"},
      {"measurement": "Cytotoxicity at effective / EC50 concentrations (DNA staining)", "setting": "Vero E6 cells", "result": "little to no cytotoxicity"}
    ]},
    {"compound": "CCC(CC)COC(=O)[C@H](C)N[P@](=O)(OC[C@H]1O[C@@](C#N)(c2ccc3c(N)ncnn23)[C@H](O)[C@@H]1O)Oc1ccccc1", "note": "[remdesivir]", "values": [
      {"measurement": "Capacity to reduce viral titre in Vero E6 cells", "setting": "SARS-CoV-2 [4]", "result": "limited capacity to reduce viral titre"}
    ]}
  ]
}
